Source: patent publication US20170042955A1, “Novel Anti-Fungal Composition” (priority 2014, published 2017)

Experiments:
[1] = test system: C. albicans; experiment: Antifungal activity by modified Kerby-Bauer disc method; type: cell-based, Candida albicans
Description: • Susceptibility disks (5 mm in diameter) were impregnated with 0.5 mg of desired compound(s)/extract dissolved in DMSO, and placed on Sabouraud dextrose agar plates separately inoculated with the C. albicans and C. glabrata. […] Disc containing only DMSO was used as a negative control. • Anticandidal activity against Candida species: • Dose dependent anti-candidal activity was observed up on treatment using Lawsoniainermisextract against tested C. albicans and C. glabrata (Table 1).

[2] = test system: proteinase of C. albicans NCIM 3074; experiment: Protease inhibitory activity, native gel electrophoresis (casein zymogram); type: cell-based, Candida albicans; settings: 100 μg mL-1 Lawsone; 24-48 h at 37° C.; FIG. 6
Description: (§1) C. albicans NCIM 3074 culture was grown in Sabouraud broth at 37° C. for 12 h. The culture was centrifuged at 7000 rpm for 5 mm to pellet the cells. The cell pellet was washed twice with normal saline and centrifuged to collect the pellets. 100 μL of Candida albicans cell suspension was added to proteinase induction medium containing 1% glucose, 3% yeast carbon base and 1% BSA (Bovine Serum Albumin). […] This was added to respective test tubes immediately after the inoculation of culture. The mixture was incubated for 24-48 h at 37° C. in a shaker at 150 rpm. Culture broth was centrifuged at 7000 rpm for 15 min to remove cells. Cells were lysed and cell lysis was used for zymographic studies after protein estimation. Zymogram was performed with 1% casein incorporated in the acrylamide gel to detect the proteinase inhibition activity. The proteinase inhibitory activity was indicated by no cleavage of casein (no band formation) and it can be compared to complete cleavage of casein by proteinases (white band formation) in control groups. […] Subsequently, 1 ml of 60% perchloric acid was added and the final volume was made to 9.1 ml using distilled water to this 0.5 ml of molybdate II reagent and 0.4 ml ANSA reagent mixture was added. The tubes were shaken well and heated in a boiling water bath for 8 mm exactly. The blue color developed was read using spectrophotometer at 680 nm.

[3] = test system: Candida sp.; settings: literature study (13); cited from earlier work
[4] = test system: Phospholipase of C. albicans; experiment: Phospholipase inhibitory activity, spectrophotometric analysis; type: cell-based, Candida albicans; settings: Lawsone 100 μg/ml
Description: as §1

Q: Which results are given for `O=C1C=C(O)C(=O)c2ccccc21` [Lawsone]?
A: Inhibition of candidal growth ([1]; C. albicans, all three concentrations 50, 100 and 200 μg/ml, FIG. 1): Complete inhibition of candidal growth; zone of inhibition at 50 µg/disc ([1]; Candida albicans): 14 mm; zone of inhibition at 100 µg/disc ([1]; Candida albicans): 16 mm; zone of inhibition at 200 µg/disc ([1]; Candida albicans): 17 mm; Zymogram result, casein cleavage [2]: intact Casein (no band/less intense band formation); Activity on Candida sp. [3]: there isn't appreciable activity; % Inhibition of Phospholipase Enzyme Activity ([4]; compared to Control): 77.78%; Phospholipase Enzyme Activity (O.D) ([4]; read at 680 nm): 0.02 O.D
